# Reference: patent US20230150980A1, “COLLAGEN 1 TRANSLATION INHIBITORS AND METHODS OF USE THEREOF” (Anima Biotech Inc., priority 2020, published 2023)
# Test system: collagen 1
# Experiment: WI-38 collagen 1 inhibition assay (anti-Collagen I immunofluorescence);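 also: minus sign means inactive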
# Type: cell-based
# Conditions: cellular EC50, WI-38 human lung fibroblasts, values are LogEC50 classes
row,Structure (SMILES),COL1 Efficacy (LogEC50)
1,c1ccc2oc(CN3CCN(c4c[nH]nn4)CC3)nc2c1 [compound 332],−
2,Cc1ncnc(N2CCN(Cc3nc4ccc(F)cc4o3)CC2)c1C(N)=O [compound 333],−
3,"Cc1ncnc(N2CC3CC2CN3Cc2nc3ccc(F)cc3o2)c1C (centres unmarked) [compound 334, 2-((5-(5,6-dimethylpyrimidin-4-yl)-2,5-diazabicyclo[2.2.1]heptan-2-yl)methyl)-6-fluorobenzo[d]oxazole]",+++ (+++: <−6)
4,"Cc1ncnc(N2CCN(Cc3nc4ccccc4o3)CC2)c1C=O [compound 336, 4-(4-(benzo[d]oxazol-2-ylmethyl)piperazin-1-yl)-6-methylpyrimidine-5-carbaldehyde]",++ (++: −5 to −6)
5,"C#CCCC1(CCOc2cncnc2N2CCN(Cc3cc4ccccc4[nH]3)CC2)N=N1 [compound 337, 2-((4-(5-(2-(3-(but-3-yn-1-yl)-3H-diazirin-3-yl)ethoxy)pyrimidin-4-yl)piperazin-1-yl)methyl)-1H-indole]",++ (++: −5 to −6)
6,"C#CCCC1(CCOc2ccc3cc(CN4CCN(c5ncncc5CC)CC4)[nH]c3c2)N=N1 [compound 338, 6-(2-(3-(but-3-yn-1-yl)-3H-diazirin-3-yl)ethoxy)-2-((4-(5-ethylpyrimidin-4-yl)piperazin-1-yl)methyl)-1H-indole]",+++ (+++: <−6)
7,CC(C)n1cc(N2CCN(Cc3nc4ccccc4o3)CC2)nn1 [compound 339],−
8,Cn1cnc(N2CCN(Cc3nc4ccccc4o3)CC2)c1 [compound 340],−
